In test [1] the test system is carmine spider mite eggs. Nature of the test: Inhibition activity on carmine spider mite eggs. The class given is in vivo.
Test [2] deals with nymph of carmine spider mite. The test is described as follows: Control on nymph of carmine spider mite. The class given is in vivo.
Test [3] has as its system rice blast. The class given is cell-based. To be noted: in vitro, 24 hours incubation.
Test [4] deals with tomato late blight. Type of test: cell-based. Conditions: in vitro, 25 mg/L, 24 hours incubation.
In test [5] the test system is mite (Tetranychus cinnabarinus). The test is described as follows: Acaricidal activity, airbrush spray, mite. To be noted: mortality after 2-3 days.
Protocol: Compounds were dissolved in mixed solvent (acetone: methanol=1:1), and diluted to required concentration with water containing 0.1% of Tween 80.
The second instar larvae of armyworm (Spodoptera exigua), diamond backmoth (Plutella xylostella), green peach aphids (Myzus persicae) and mite (Tetranychus cinnabarinus) were used in biological test. The method was employed either spraying by airbrush. A test solution (0.5 ml) was sprayed at the pressure of 0.7 kg/cm^2. Percent mortality was determined after 2-3 days.
In test [6] the test system is cucumber anthracnose. Nature of the test: Fungicidal activity in vivo, cucumber anthracnose. To be noted: plants sprayed, scored after 1 week.
Protocol: (§1) Determination of Fungicidal Activity In Vivo:
(§2) Compounds were disolved into acetone to receive stock solution. Deionized water containing 0.1% Tween 80 was added in the previous solution to receive 20 ml test solution. Plants are sprayed by using a turntable sprayer. After 24 hours, plants were innoculated with a conidial suspension. Plants were then transferred into a dew chamber [R.H. (relative humidity)>95%] for infection. After this treatment, plants were removed from the chamber to the greenhouse for normal maintaining, After the infection period, the plants were placed in the greenhouse. After 1 week, the plants were scored for disease control.
Test [7] has as its system cucumber downy mildew. Nature of the test: Fungicidal activity in vivo, cucumber downy mildew. To be noted: plants sprayed, scored after 1 week.
Protocol: as §1, §2
Test [8] relates to armyworm (Spodoptera exigua). The test is described as follows: Insecticidal activity, airbrush spray, armyworm. The class given is in vivo. Conditions: 600 mg/L, mortality after 2-3 days.
The test system of test [9] is corn rust. Nature of the test: Fungicidal activity in vivo, corn rust. To be noted: 25 mg/L, plants sprayed, scored after 1 week.
Protocol: as §1, §2
For test [10], the system named is diamond backmoth (Plutella xylostella). The test is described as follows: Insecticidal activity, airbrush spray, diamond backmoth. The class given is in vivo. Conditions: 600 mg/L, mortality after 2-3 days.
The test system of test [11] is cucumber grey mold. The test is described as follows: Fungicidal activity in vitro, cucumber grey mold. The class given is cell-based. Conditions: 2.8 mg/L, 24 hours incubation.
Test [12] concerns wheat powdery mildew. The test is described as follows: Fungicidal activity in vivo, wheat powdery mildew. Conditions: plants sprayed, scored after 1 week.
Protocol: as §1, §2

Like-named read-outs stand apart in the source and are kept apart here.

For `COC=C(C(=O)OC)c1ccccc1COc1cc(C(F)(F)F)nc(Nc2ccccc2)n1` [Compound 20], the “inhibition activity on carmine spider mite eggs” value was 80% in [1] (5 mg/L) and 100% in test [1] (10 mg/L). Moreover, the “control on nymph of carmine spider mite” value was 90% in test [2] (10 mg/L) and 100% in test [2] (20 mg/L). Moreover, the “control of rice blast” value in [3] (2.8 mg/L), in test [3] (8.3 mg/L) and in [3] (25 mg/L) was 100% throughout. Further, the “control of tomato late blight” value in test [4] is recorded as 100%. Also, the control of mite in test [5] (150 mg/L) and in test [5] (600 mg/L) was 100% throughout. Also, the “control of cucumber anthracnose” value in test [6] (25 mg/L) and in test [6] (400 mg/L) was 100% in each case. Further, in test [7] (400 mg/L), the “control of cucumber downy mildew” value was found to be 100%.
Regarding `COC(=O)N(OC)c1ccccc1COc1cc(C(F)(F)F)nc(Nc2ccccc2)n1` [Compound 424], in test [8], the control of armyworm is given as 100%. For the same molecule, the “control of tomato late blight” value in [4] is listed as 100%. Also, in test [6] (400 mg/L), the “control of cucumber anthracnose” value worked out at 100%. In test [7] (400 mg/L), the “control of cucumber downy mildew” value was 100%.
As for `CNC(=O)N(OC)c1ccccc1COc1cc(C2CC2)nc(Nc2ccccc2)n1` [Compound 666], in test [3] (8.3 mg/L), the “control of rice blast” value worked out at 100%.
As to `COC=C(C(=O)OC)c1ccccc1COc1nc(Nc2ccccc2)nc(C)c1C` [Compound 41], the “control of rice blast” value in [3] (2.8 mg/L) was “about 80%”; in [3] (8.3 mg/L), “about 80%”; in [3] (25 mg/L) it was 100%. Besides, in test [4], the “control of tomato late blight” value was 100%. Further, the “control of corn rust” value in [9] is 100%. For the same molecule, the “control of cucumber anthracnose” value in [6] (25 mg/L) and in test [6] (400 mg/L) was 100% each time. Further, the “control of cucumber downy mildew” value in [7] (25 mg/L) and in [7] (400 mg/L) was 100% throughout.
The molecule `COC=C(C(=O)OC)c1ccccc1COc1cc(C(F)(F)F)nc(NC(C)C)n1` [Compound 682] registered a control of mite in [5] (600 mg/L) of 100%.
As for `COC=C(C(=O)OC)c1ccccc1COc1cc(C2CC2)nc(Nc2ccccc2)n1` [Compound 25], in [10], the “control of diamond backmoth” value worked out at 100%. Also, the “control of rice blast” value in [3] (8.3 mg/L) is listed as “about 80%”; in test [3] (25 mg/L), 100%. For the same molecule, the “control of tomato late blight” value in test [4] amounted to 100%. Moreover, the “control of corn rust” value in test [9] is on record as 100%. Besides, in test [5] (600 mg/L), the control of mite stood at 100%. In addition, the “control of cucumber anthracnose” value in test [6] (25 mg/L) and in [6] (400 mg/L) was 100% throughout. The “control of cucumber downy mildew” value in [7] (25 mg/L) and in test [7] (400 mg/L) was 100% each time.
In the case of `COC=C(C(=O)OC)c1ccccc1COc1cc(C)nc(Nc2ccccc2)n1` [Compound 19], the “control of rice blast” value in test [3] (2.8 mg/L), in test [3] (8.3 mg/L) and in test [3] (25 mg/L) was 100% in each case. Besides, the “control of tomato late blight” value in [4] was 100%. For the same molecule, the “control of corn rust” value in [9] was 100%. Further, the “control of cucumber anthracnose” value in test [6] (25 mg/L) and in test [6] (400 mg/L) was 100% throughout. Further, the “control of cucumber downy mildew” value in test [7] (25 mg/L) and in test [7] (400 mg/L) was 100% in each case.
Take `CNC(=O)N(OC)c1ccccc1COc1cc(Br)nc(Nc2ccccc2)n1` [Compound 475]: the control of armyworm in test [8] was found to be 100%. Moreover, the “control of rice blast” value is listed as “about 80%” in test [3] (8.3 mg/L) and 100% in test [3] (25 mg/L).
With `COC(=O)N(OC)c1ccccc1COc1cc(C2CC2)nc(Nc2ccccc2)n1` [Compound 664], the figures for the “control of rice blast” value in [3] (8.3 mg/L) and in [3] (25 mg/L) were “about 80%” and 100%, respectively. The “control of tomato late blight” value in test [4] came out at 100%. In addition, in test [7] (400 mg/L), the “control of cucumber downy mildew” value was determined as 100%.
For the molecule `COC=C(C(=O)OC)c1ccccc1COc1cc(C(F)(F)F)nc(Nc2ccc(C)c(C)c2)n1` [Compound 697], in test [5] (600 mg/L), the control of mite is on record as 100%.
Regarding `CNC(=O)C(=NOC)c1ccccc1COc1cc(C2CC2)nc(Nc2ccccc2)n1` [Compound 665], the “control of rice blast” value in test [3] (8.3 mg/L) is listed as “about 80%”. In addition, in test [9], the “control of corn rust” value turned out to be 100%. Moreover, the “control of cucumber anthracnose” value in test [6] (25 mg/L) was determined as 100%.
Turning to `COC(=O)N(OC)c1ccccc1COc1cc(C)nc(Nc2ccccc2)n1` [Compound 677], the “control of rice blast” value in test [3] (8.3 mg/L) is on record as 100%. The “control of cucumber anthracnose” value in test [6] (25 mg/L) amounted to 100%.
Take `CON=C(C(=O)OC)c1ccccc1COc1nc(Nc2ccccc2)nc(C)c1C` [Compound 667]: the “control of diamond backmoth” value in [10] is recorded as 100%. Besides, the figures for the “control of rice blast” value in [3] (2.8 mg/L), in test [3] (8.3 mg/L) and in test [3] (25 mg/L) were “about 80%”, 100% and 100%, respectively. Besides, the “control of tomato late blight” value in test [4] is given as 100%. Besides, in [11], the “control of cucumber grey mold” value is “about 50%”. The “control of cucumber anthracnose” value in test [6] (400 mg/L) came out at 100%. Further, the “control of cucumber downy mildew” value in test [7] (400 mg/L) was determined as 100%.
Consider `COC=C(C(=O)OC)c1ccccc1COc1cc(C(F)(F)F)nc(Nc2cccnc2Cl)n1` [Compound 691], for which the control of mite in test [5] (40 mg/L) and in test [5] (600 mg/L) was 100% throughout.
With `CON=C(C(=O)OC)c1ccccc1COc1cc(C2CC2)nc(Nc2ccccc2)n1` [Compound 232], the results for the “control of rice blast” value in test [3] (8.3 mg/L) and in test [3] (25 mg/L) were “about 80%” and 100%, respectively. For the same molecule, the “control of tomato late blight” value in test [4] turned out to be 100%. The “control of cucumber anthracnose” value in test [6] (400 mg/L) amounted to 100%. The “control of cucumber downy mildew” value in [7] (400 mg/L) was 100%.
In the case of `CNC(=O)N(OC)c1ccccc1COc1nc(Nc2ccccc2)nc(C)c1C` [Compound 670], the “control of rice blast” value in [3] (8.3 mg/L) was “about 80%”. Further, in [6] (25 mg/L), the “control of cucumber anthracnose” value was 100%.
In the case of `COC=C(C(=O)OC)c1ccccc1COc1cc(C(F)(F)F)nc(N(C)C)n1` [Compound 680], the “control of wheat powdery mildew” value in [12] (25 mg/L) was determined as 98%; in [12] (400 mg/L) it was 100%.
Take `COC=C(C(=O)OC)c1ccccc1COc1cc(C(F)(F)F)nc(Nc2ccc(C)cc2C)n1` [Compound 693]: the control of mite in [5] (600 mg/L) is 100%.
In the case of `COC=C(C(=O)OC)c1ccccc1COc1cc(C(F)(F)F)nc(Nc2cccc(Cl)c2Cl)n1` [Compound 694], the control of mite in test [5] (40 mg/L) and in test [5] (600 mg/L) was 100% throughout.
As to `CNC(=O)C(=NOC)c1ccccc1COc1cc(C)nc(Nc2ccccc2)n1` [Compound 678], the “control of cucumber anthracnose” value in test [6] (25 mg/L) was found to be 100%.
Regarding `COC(=O)N(OC)c1ccccc1COc1nc(Nc2ccccc2)nc(C)c1C` [Compound 668], the “control of rice blast” value was “about 80%” in test [3] (8.3 mg/L) and 100% in [3] (25 mg/L). Besides, the “control of tomato late blight” value in [4] is reported as 100%. The “control of cucumber anthracnose” value in test [6] (400 mg/L) is 100%. The “control of cucumber downy mildew” value in test [7] (400 mg/L) is on record as 100%.
As to `CNC(=O)C(=NOC)c1ccccc1COc1nc(Nc2ccccc2)nc(C)c1C` [Compound 669], in [9], the “control of corn rust” value was 100%. For the same molecule, the “control of cucumber anthracnose” value in test [6] (25 mg/L) was determined as 100%.
Molecule `COC=C(C(=O)OC)c1ccccc1COc1cc(C(F)(F)F)nc(NC2CCCCC2)n1` [Compound 701] gave a control of mite in test [5] (40 mg/L) of 100%.
For the molecule `CON=C(C(=O)OC)c1ccccc1COc1cc(C)nc(Nc2ccccc2)n1` [Compound 676], the results for the “control of rice blast” value in [3] (2.8 mg/L) and in [3] (8.3 mg/L) were “about 80%” and 100%, respectively.
As to `CO/N=C(/C(=O)OC)c1ccccc1COc1cc(C(F)(F)F)nc(Nc2ccccc2)n1` [Compound 229], the control of armyworm in test [8] worked out at 100%. Also, in test [3] (8.3 mg/L), the “control of rice blast” value is reported as “about 80%”. Besides, in test [4], the “control of tomato late blight” value came out at 100%. The molecule further had a control of mite in test [5] (600 mg/L) of 100%. For the same molecule, in [7] (400 mg/L), the “control of cucumber downy mildew” value is listed as 100%.
